Results: patent US5541174A, “Analgesic method” (priority 1995, dated 1996)

Experiments:
[1] = test system: acetic acid-induced writhing mouse pain model; assay: Measurement of time of peak activity in the acetic acid-induced writhing mouse pain model; type: in vivo
Description: Groups of 10 ICR male mice (Taisho Pharmaceutical Co. Research Center) were used to study each dose of every compound. […] Number of writhes were counted for each mouse during a period of 10 to 20 min after acetic acid injection. Inhibitory percent was calculated by comparison with the number of writhes in the non-treated control, vehicle-treated, and acetic acid-injected group. The ED50 value and 95% confidence limits were calculated from the inhibitory percent by the method of Litchfield and Wilcoxon.
(§1) All drugs were suspended with 5% gum arabic in saline solution or wetted with enough propylene glycol to give a final concentration of 4% propylene glycol and the wetted solid suspended in 1.4% polyvinyl alcohol in saline.

[2] = test system: acetic acid-induced writhing mouse pain model; assay: Naloxone reversal of analgesia in the acetic acid-induced writhing mouse pain model; type: in vivo; conditions: for % Inhibition: 555 umol/kg s.c.
Description: (§2) Groups of 10 ICR male mice (Taisho Pharmaceutical Co. Research Center) were used to study each dose of every compound. Ligands or complexes were administered orally or subcutaneously in 0.1 ml of vehicle per 10 g of body weight 30 minutes before the intrapertioneal injection of 0.1 ml of 0.7% acetic acid solution per 10 g of body weight. Number of writhes were counted for each mouse during a period of 10 to 20 min after acetic acid injection. Inhibitory percent was calculated by comparison with the number of writhes in the non-treated control, vehicle-treated, and acetic acid-injected group. The ED50 value and 95% confidence limits were calculated from the inhibitory percent by the method of Litchfield and Wilcoxon.
as §1
NaloxoneHCL (3 umol/kg. i.v., in saline, Endo Lab.) was administered 5
min. before acetic acid injection.

[3] = test system: acetic acid induced writhing in mice; assay: Acetic acid-induced writhing test; type: in vivo, ICR male mice
Description: 1. Acetic acid-induced writhing test as described in Koster et al., "Acetic Acid for Analgesic Screening", Fed. Proc. 18, 412 (1959), incorporated by reference herein; and
as §2

[4] = test system: adjuvant-induced arthritic pain in rats; assay: Adjuvant-induced arthritic pain; type: in vivo, male Sprague-Dawley rats
Text: 2. Adjuvant-induced arthritic pain as described in:
S. KUZNA, et al., Measurement of Arthritic Pain and Effects of Analgesics in the Adjuvant-Treated Rat, Chem. Pharm. Bull. 23, 1184-1191 (1975);
C. A. WINTER, et al., Analgesic Activity of Diflunisal in Rats with Hyperalygesia Induced by Freud's Adjuvant, J. Pharmacol. Exp. Ther. 211, 678-685 (1979; and
M. E. ROSENTHALE, et al., Adjuvant Arthritis:Immuno-Pathological and Hyperalgesic Features, Fed. Proced. 41, 2577-2582 (1982),
incorporated by reference herein.
Groups of 5-6 male Sprague-Dawley rats (Taisho Pharmaceutical Co. Research Center) weighing 140 to 160 g at the time of Mycobacterium butyricum (adjuvant, Difco Laboratories, Detroit, Mich.) injection were used to study each compound. Rats were injected intradermally at the base of the tail with 0.1 ml of a parafin oil suspension of 0.5 mg of heat-killed mycobacterium. Fifteen to 19 days later, drugs were administered orally or subcutaneously in 0.5 ml of vehicle per 100 g of body weight to rats showing the nociceptive reaction, vocalization following a gentle flexion of the tarsal-tibial joint of the inflamed hind-paw. Vocalization responses were measured every hour for 5 hours. […] The ED50 value and 95% confidence limits were calculated from the positive rate for non-treated controls, vehicle-treated adjuvant arthritic rats, by the method of Litchfield and Wilcoxin.
as §1

[5] = oral, 5% gum arabic, 0.06 mmol/kg
[6] = oral, 5% gum arabic, 0.12 mmol/kg
[7] = oral, 5% gum arabic, 0.24 mmol/kg
[8] = oral, 5% gum arabic, 0.04 mmol/kg
[9] = oral, 5% gum arabic, 0.08 mmol/kg

CCN(CC)C(=S)[S-].CCN(CC)C(=S)[S-].[Cu+2] [Cu(II)(DDC)2, Bisdiethyldithiocarbamatocopper(II)]
Inhibition % ([1]; 555 umol/kg s.c., 30 min): 29% | Inhibition % ([1]; 555 umol/kg s.c., 60 min): 42% | Inhibition % ([1]; 555 umol/kg s.c., 120 min): 45% | Inhibition % ([1]; 555 umol/kg s.c., 180 min): 29% | duration of analgesic effect ([1]; Table VII): prolonged duration of analgesic effect | % Inhibition ([2]; with Naloxone HCl 3 umol/kg i.v.): 29% | % Inhibition ([2]; without naloxone): 45% | reduction of induced analgesia by Naloxone ([2]; Table VIII): reduction

CCN(CC)C(=S)[S-].[Na+] [NaDDC, sodium diethyldithiocarbamate, reference compound]
Inhibition % ([1]; 584 umol/kg s.c., 30 min): 48% | Inhibition % ([1]; 584 umol/kg s.c., 60 min): 53% | Inhibition % ([1]; 584 umol/kg s.c., 120 min): 20% | Inhibition % ([1]; 584 umol/kg s.c., 180 min): 18%

Cu(II)2 (acetate)4
ED50 ([3]; s.c., PG-PVA in saline): 0.32 mmol/kg | % Inhibition ([3]; s.c., PG-PVA, 0.21 mmol/kg): 42% | % Inhibition ([3]; s.c., PG-PVA, 0.41 mmol/kg): 59% | % Inhibition ([3]; s.c., PG-PVA, 0.83 mmol/kg): 61% | effectiveness versus other compounds ([3]; writhing model, Tables I and II): more effective than anthranilic acid, salicylic acid, and aspirin | analgesic activity ([4]; doses statistically significantly analgesic in the writhing model): devoid of analgesic activity | ED50 ([4]; oral, PG-PVA in saline): > 0.83 mmol/kg | % Inhibition ([4]; oral, PG-PVA, 0.83 mmol/kg): 0% | ED50 ([4]; s.c., PG-PVA in saline): > 0.83 mmol/kg | % Inhibition ([4]; s.c., PG-PVA, 0.83 mmol/kg): 3%

Tetra(.eta.-acetylsalicylato)biscopper(II) [Cu(II)2 (aspirinate)4]
ED50 ([3]; oral, 5% gum arabic in saline): > 0.24 mmol/kg | analgesic effectiveness versus parent ligand ([3]; oral, 5% gum arabic in saline): more effective than their parent ligands | % Inhibition [3, 5]: 37% | % Inhibition [3, 6]: 38% | % Inhibition [3, 7]: 33% | analgesic effectiveness versus parent ligand ([3]; oral, PG-PVA): more effective than their parent ligands | ED50 ([3]; oral, PG-PVA in saline): 0.14 mmol/kg | % Inhibition ([3]; oral, PG-PVA, 0.09 mmol/kg): 32% | % Inhibition ([3]; oral, PG-PVA, 0.18 mmol/kg): 59% | % Inhibition ([3]; oral, PG-PVA, 0.36 mmol/kg): 80% | ED50 ([3]; s.c., PG-PVA in saline): 0.04 mmol/kg | % Inhibition ([3]; s.c., PG-PVA, 0.03 mmol/kg): 36% | % Inhibition ([3]; s.c., PG-PVA, 0.06 mmol/kg): 59% | % Inhibition ([3]; s.c., PG-PVA, 0.24 mmol/kg): 82% | analgesic effectiveness versus parent ligand ([4]; oral, 5% gum arabic): more effective than their parent ligand | ED50 ([4]; oral, 5% gum arabic in saline): 0.29 mmol/kg | % Inhibition [4, 5]: 7% | % Inhibition [4, 6]: 17% | % Inhibition [4, 7]: 43% | ED50 ([4]; oral, PG-PVA in saline): 0.09 mmol/kg | % Inhibition ([4]; oral, PG-PVA, 0.03 mmol/kg): 13% | % Inhibition ([4]; oral, PG-PVA, 0.06 mmol/kg): 30% | % Inhibition ([4]; oral, PG-PVA, 0.12 mmol/kg): 60% | ED50 ([4]; s.c., PG-PVA in saline): 0.06 mmol/kg | % Inhibition ([4]; s.c., PG-PVA, 0.03 mmol/kg): 23% | % Inhibition ([4]; s.c., PG-PVA, 0.06 mmol/kg): 50% | % Inhibition ([4]; s.c., PG-PVA, 0.12 mmol/kg): 73%

[2[3(trifluoromethyl)phenyl]aminonicotinato]2n -(aqua)n -copper(II)n [Cu(II)2 (niflumate)4]
ED50 ([3]; oral, 5% gum arabic in saline): 0.09 mmol/kg | analgesic effectiveness versus parent ligand ([3]; oral, 5% gum arabic in saline): more effective than their parent ligands | % Inhibition [3, 8]: 37% | % Inhibition [3, 9]: 48% | analgesic effectiveness versus parent ligand ([3]; oral, PG-PVA): more effective than their parent ligands | ED50 ([3]; oral, PG-PVA in saline): 0.10 mmol/kg | % Inhibition ([3]; oral, PG-PVA, 0.06 mmol/kg): 33% | % Inhibition ([3]; oral, PG-PVA, 0.12 mmol/kg): 57% | % Inhibition ([3]; oral, PG-PVA, 0.24 mmol/kg): 73% | ED50 ([3]; s.c., PG-PVA in saline): 0.02 mmol/kg | % Inhibition ([3]; s.c., PG-PVA, 0.01 mmol/kg): 37% | % Inhibition ([3]; s.c., PG-PVA, 0.02 mmol/kg): 48% | % Inhibition ([3]; s.c., PG-PVA, 0.04 mmol/kg): 58% | analgesic effectiveness versus parent ligand ([4]; oral, 5% gum arabic): more effective than their parent ligand | ED50 ([4]; oral, 5% gum arabic in saline): 0.18 mmol/kg | % Inhibition [4, 8]: 7% | % Inhibition [4, 9]: 13% | ED50 ([4]; oral, PG-PVA in saline): > 0.16 mmol/kg | ED50 ([4]; s.c., PG-PVA in saline): 0.03 mmol/kg | % Inhibition ([4]; s.c., PG-PVA, 0.01 mmol/kg): 17% | % Inhibition ([4]; s.c., PG-PVA, 0.02 mmol/kg): 50% | % Inhibition ([4]; s.c., PG-PVA, 0.04 mmol/kg): 60%
